Columns and labels:
MCF-7 cells [1] = assay: 3H-thymidine uptake (DNA synthesis / cell proliferation); assay type: cell-based; conditions: mevalonate 20 μM with simvastatin or fluvastatin
Protocol: Thymidine Uptake Studies:
DNA synthesis was measured by monitoring the uptake of tritiated thymidine, [^3H]TdR (Perkin-Elmer, Boston, Mass.). Cells (5×10^5/ml) were cultured with different concentrations of simvastatin or fluvastatin (0-10 μM) in the presence or absence of mevalonate (20 μM), 1400 W, or sepiapterin. Cells were pulse-chased with [^3H]TdR [0.5 μCi (0.185 MBq)/well during the last 3 h of a 24 h culture, harvested onto glass filters with an automatic cell harvester (Cambridge Technology, Cambridge, Mass.), and counted using the LKB Betaplate scintillation counter (Wallac, Gaithersburg, Md.). All experiments were performed in triplicate and repeated three times.

[2] = tested on: MCF-7 breast cancer cells; assay: MTT reduction cytotoxicity assay in MCF-7 cells; conditions: pretreatment before simvastatin or fluvastatin (10 μM), 48 h; mevalonate 20 μM, 1400 W 10 μM
Protocol: MTT Reduction Cytotoxicity Assay:
MTT is taken up by cells and is reduced to a colored formazon product that can be detected by spectrophotometry (max=562 nm). Reduction of MTT is dependent upon the mitochondrial respiratory function, and thus measures the relative number of viable cells in the culture. After the treatment was completed, MCF-7 cells were washed twice with DPBS and taken in a ml of MEM without FBS and incubated with 5 mg/ml MTT solution for 1 h at 37° C. Medium was removed and cells were solubilized in DMSO. The absorption was measured at 562 nm with reference at 630 nm.
We assessed the effectiveness of simvastatin and fluvastatin to induce cytotoxicity in MCF-7 cells. MCF-7 breast cancer cells were treated with fluvastatin or simvastatin at different concentrations (0.5-20 μM) for 24-48 h. The changes in the number of viable cells were determined using the MTT assay that monitors the intracellular conversion of MTT to formazon spectrophotometrically max=562 nm).

MCF-7 cells [3] = assay: Apoptosis by TUNEL assay; assay type: cell-based; conditions: with simvastatin or fluvastatin 5-10 μM, 48 h; 1400 W 10 μM, sepiapterin 50 μM, mevalonate 20 μM
Text: Measurement of Apoptosis by TUNEL Assay:
The terminal deoxynucleotidyl transferase-mediated nick-end labeling (TUNEL) assay was used for microscopic detection of apoptosis (Kotamraju S, et al. J Biol Chem, 277:17179-87, 2002). This assay is based on labeling of 3′ free hydroxyl ends of the fragmented DNA with fluorescein-dUTP catalyzed by terminal deoxynucleotidyl transferase. Procedures were followed according to a commercially available kit (ApoAlert) from Clontech. […] The apoptotic cells were detected by fluorescence microscopy equipped with rhodamine and FITC filters. The quantification of apoptosis was performed using the Metamorph image analysis package.
Under these conditions, NO2^−/NO3^− levels were decreased (FIG. 4B). […] Further verification that iNOS is involved in […] NO was obtained from inhibition of geranylgeranylation and farnesylation. […] In contrast, FTI-277 (farnesylation inhibitor) and sepiapterin had no effect on NO2^−/NO3^− levels (FIG. 4C). […] In the TUNEL assay, cells were treated with simvastatin or fluvastatin (5-10 μM) for 48 h in the presence or absence of 1400 W (10 μM), sepiapterin (50 μM) or mevalonate (20 μM) and stained for TUNEL-positive cells as an index of DNA fragmentation monitored by fluorescence microscopy (original magnification, ×100). Photographs were taken for the overlaid images of propidium iodide-and FITC-stained cells (TUNEL-positive cells). Yellow and red denote apoptotic and nonapoptotic cells, respectively. We observed that the TUNEL positive staining was enhanced in statin-treated MCF-7 cells. […] Pretreatment with 1400 W or mevalonate caused a decrease in the TUNEL positive cells.

MCF-7 cells [4] = assay: Cell cycle analysis by flow cytometry; assay type: cell-based; conditions: 1400 W 10 μM, mevalonate 20 μM
Protocol: For DNA content analysis, harvested cells were centrifuged at 1,000×g for 5 min, fixed by the gradual addition of ice-cold 70% ethanol, and washed with PBS. Cells were then treated with RNase (10 μg/mL) for 30 min at 37° C., washed once with PBS, and resuspended and stained in 1 mL of 69 μmol/L propidium iodide in 38 mmol/L sodium citrate for 30 min at room temperature. The cell cycle phase distribution was determined by analytic DNA flow cytometry as described in (Vindelov L, et al. Methods Cell Biol, 33:127-37, 1990). The percentage of cells in each phase of the cell cycle was analyzed using a Modfit software (Verity Software House, Topsham, Me.).
As NO has previously been reported to exert tumor cell cycle alterations (Pervin S, et al. Natl Acad Sci USA 98:3583-3588, 2001), we investigated the cytostatic effect of statins in MCF-7 cells. MCF-7 cells were treated with simvastatin and fluvastatin for […] in the presence and absence of 1400 W (10 μM) and mevalonate (20 μM). Cell cycle progression was examined using FACScan flow cytometry analysis. […] As cell cycle progression from […] involves activations of the cell regulatory proteins, cyclins D and E, we investigated the effects of statins and iNOS inhibitor on the cell cycle proteins. […]

CC(O)(CCO)CC(=O)O (stereo not shown) [mevalonate]
effect on statin inhibition of 3H-thymidine uptake (MCF-7 cells [1]): partially reversed
effect on statin-induced MCF-7 cell cytotoxicity (MTT assay) [2]: significantly reversed
effect on statin-induced TUNEL-positive cells (proapoptotic effect) (MCF-7 cells [3]): decrease
effect on statin-induced cell cycle alterations (MCF-7 cells [4]): almost completely reversed

Reference: patent US20070219208A1, “Methods for Treating Cancer” (priority 2006, published 2007)
